Data reported in ChEMBL document CHEMBL5465560, “Selectivity Literature for EUbOPEN Chemogenomic Library” (2024).

Columns and labels:
[1] = molecular target: Vascular endothelial growth factor receptor 2 (Homo sapiens, UniProt P35968); experiment: Selectivity interaction (KinomeScan (DiscoverX)) EUB0001049a KDR; details: at 1 µM
[2] = molecular target: Cyclin-dependent kinase 7 (Homo sapiens, UniProt P50613); experiment: Selectivity interaction (ActivX KiNativ screen (kinase selectivity in THP-1 cell lysates)) EUB0000639a CDK7; type: subcellular; details: lysate, at 0.01 µM
Sequence of Cyclin-dependent kinase 7 (P50613 whole entry): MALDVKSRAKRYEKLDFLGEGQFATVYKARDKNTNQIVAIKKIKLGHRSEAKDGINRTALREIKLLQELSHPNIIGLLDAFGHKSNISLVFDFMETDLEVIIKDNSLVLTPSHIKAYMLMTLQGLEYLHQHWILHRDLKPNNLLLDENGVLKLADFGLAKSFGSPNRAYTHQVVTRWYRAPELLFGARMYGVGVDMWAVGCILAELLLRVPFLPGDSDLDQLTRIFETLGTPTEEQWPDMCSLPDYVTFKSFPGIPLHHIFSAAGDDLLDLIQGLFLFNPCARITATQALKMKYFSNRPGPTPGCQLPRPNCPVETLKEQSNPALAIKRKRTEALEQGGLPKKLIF

[3] = molecular target: T1, Dual specificity tyrosine-phosphorylation-regulated kinase 3 (Homo sapiens) (UniProt O43781); experiment: Selectivity interaction (Kinase panel (Invitrogen)) EUB0000639a DYRK3; details: at 200 nM
T1 sequence (whole entry): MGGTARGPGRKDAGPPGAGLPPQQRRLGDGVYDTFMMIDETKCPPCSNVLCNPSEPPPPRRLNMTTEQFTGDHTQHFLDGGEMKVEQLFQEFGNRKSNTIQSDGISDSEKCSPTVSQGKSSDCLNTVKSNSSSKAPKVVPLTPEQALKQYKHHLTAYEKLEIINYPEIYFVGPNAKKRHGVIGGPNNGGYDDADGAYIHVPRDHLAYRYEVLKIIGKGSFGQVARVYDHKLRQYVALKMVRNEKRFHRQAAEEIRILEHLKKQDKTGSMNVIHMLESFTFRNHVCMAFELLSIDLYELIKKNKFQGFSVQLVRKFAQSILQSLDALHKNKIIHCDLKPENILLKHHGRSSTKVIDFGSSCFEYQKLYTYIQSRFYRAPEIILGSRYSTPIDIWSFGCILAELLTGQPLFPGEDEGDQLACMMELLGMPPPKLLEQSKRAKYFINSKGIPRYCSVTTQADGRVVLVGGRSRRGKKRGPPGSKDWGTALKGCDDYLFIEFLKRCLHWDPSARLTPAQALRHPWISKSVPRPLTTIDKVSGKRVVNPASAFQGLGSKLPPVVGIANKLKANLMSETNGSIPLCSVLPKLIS

[4] = molecular target: T2, Serine/threonine-protein kinase 36 (Homo sapiens) (UniProt Q9NRP7); experiment: Selectivity interaction (Ambit KINOMEscan and KiNATiv profiling in Jurkat cells) EUB0000090b STK36; type: cell-based; details: at 1 µM
T2 sequence (whole entry): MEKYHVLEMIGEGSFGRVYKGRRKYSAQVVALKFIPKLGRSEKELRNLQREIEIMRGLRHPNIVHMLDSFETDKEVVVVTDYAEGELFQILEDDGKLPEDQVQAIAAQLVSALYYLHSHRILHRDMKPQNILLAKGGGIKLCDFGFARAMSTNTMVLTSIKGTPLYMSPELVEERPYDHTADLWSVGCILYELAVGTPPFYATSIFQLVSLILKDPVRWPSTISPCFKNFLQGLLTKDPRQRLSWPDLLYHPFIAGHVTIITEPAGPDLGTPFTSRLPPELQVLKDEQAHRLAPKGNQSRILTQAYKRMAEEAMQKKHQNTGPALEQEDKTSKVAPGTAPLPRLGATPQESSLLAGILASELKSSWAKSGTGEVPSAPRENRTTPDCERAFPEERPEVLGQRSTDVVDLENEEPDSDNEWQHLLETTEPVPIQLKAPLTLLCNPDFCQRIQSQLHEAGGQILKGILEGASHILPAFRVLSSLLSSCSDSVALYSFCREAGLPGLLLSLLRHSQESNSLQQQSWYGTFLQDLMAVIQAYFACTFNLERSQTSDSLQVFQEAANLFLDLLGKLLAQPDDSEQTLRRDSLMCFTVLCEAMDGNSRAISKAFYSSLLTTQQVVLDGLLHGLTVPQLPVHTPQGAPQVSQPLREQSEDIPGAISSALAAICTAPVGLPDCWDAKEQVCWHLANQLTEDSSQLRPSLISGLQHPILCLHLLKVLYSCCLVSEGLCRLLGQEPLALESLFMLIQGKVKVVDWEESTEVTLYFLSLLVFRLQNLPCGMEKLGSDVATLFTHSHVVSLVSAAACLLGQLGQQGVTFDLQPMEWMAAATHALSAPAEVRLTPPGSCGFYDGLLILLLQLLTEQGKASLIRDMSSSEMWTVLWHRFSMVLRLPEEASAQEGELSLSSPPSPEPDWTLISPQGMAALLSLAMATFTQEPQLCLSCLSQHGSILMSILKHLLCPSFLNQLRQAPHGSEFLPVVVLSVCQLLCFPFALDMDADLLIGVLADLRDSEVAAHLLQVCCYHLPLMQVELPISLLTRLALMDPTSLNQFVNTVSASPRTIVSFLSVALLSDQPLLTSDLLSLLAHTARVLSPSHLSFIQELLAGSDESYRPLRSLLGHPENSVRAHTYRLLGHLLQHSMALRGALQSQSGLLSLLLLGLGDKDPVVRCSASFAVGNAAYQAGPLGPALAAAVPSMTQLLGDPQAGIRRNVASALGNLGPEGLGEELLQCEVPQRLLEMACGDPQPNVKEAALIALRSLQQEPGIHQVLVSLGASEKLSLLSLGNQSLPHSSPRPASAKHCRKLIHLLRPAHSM

[5] = molecular target: Tyrosine-protein kinase Lck (Homo sapiens, UniProt P06239); experiment: Selectivity interaction (Panel of kinases, GPCRs, ion channels and transporters (enzymatic assay)) EUB0000223bCl LCK
Sequence of Tyrosine-protein kinase Lck (P06239 2-509 limits assumed): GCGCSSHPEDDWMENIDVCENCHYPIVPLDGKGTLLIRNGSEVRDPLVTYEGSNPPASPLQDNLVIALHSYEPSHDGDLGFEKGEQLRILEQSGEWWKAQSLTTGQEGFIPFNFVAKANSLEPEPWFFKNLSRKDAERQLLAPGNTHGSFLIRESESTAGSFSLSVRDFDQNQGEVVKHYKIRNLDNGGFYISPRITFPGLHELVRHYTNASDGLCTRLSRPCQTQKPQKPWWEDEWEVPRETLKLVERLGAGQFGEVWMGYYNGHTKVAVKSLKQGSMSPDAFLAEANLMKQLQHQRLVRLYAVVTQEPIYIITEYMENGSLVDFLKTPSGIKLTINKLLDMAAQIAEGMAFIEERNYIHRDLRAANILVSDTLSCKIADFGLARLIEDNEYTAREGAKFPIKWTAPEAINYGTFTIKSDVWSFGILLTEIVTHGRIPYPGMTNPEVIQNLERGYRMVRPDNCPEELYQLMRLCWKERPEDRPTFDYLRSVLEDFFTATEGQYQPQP

[6] = molecular target: Ribosomal protein S6 kinase alpha-4 (Homo sapiens) (UniProt O75676); experiment: Selectivity interaction (Kinase panel (Z-LYTE Assay)) EUB0001632a RPS6KA4; details: at 10 µM
Sequence of Ribosomal protein S6 kinase alpha-4 (Homo sapiens) (O75676 whole entry, looked up): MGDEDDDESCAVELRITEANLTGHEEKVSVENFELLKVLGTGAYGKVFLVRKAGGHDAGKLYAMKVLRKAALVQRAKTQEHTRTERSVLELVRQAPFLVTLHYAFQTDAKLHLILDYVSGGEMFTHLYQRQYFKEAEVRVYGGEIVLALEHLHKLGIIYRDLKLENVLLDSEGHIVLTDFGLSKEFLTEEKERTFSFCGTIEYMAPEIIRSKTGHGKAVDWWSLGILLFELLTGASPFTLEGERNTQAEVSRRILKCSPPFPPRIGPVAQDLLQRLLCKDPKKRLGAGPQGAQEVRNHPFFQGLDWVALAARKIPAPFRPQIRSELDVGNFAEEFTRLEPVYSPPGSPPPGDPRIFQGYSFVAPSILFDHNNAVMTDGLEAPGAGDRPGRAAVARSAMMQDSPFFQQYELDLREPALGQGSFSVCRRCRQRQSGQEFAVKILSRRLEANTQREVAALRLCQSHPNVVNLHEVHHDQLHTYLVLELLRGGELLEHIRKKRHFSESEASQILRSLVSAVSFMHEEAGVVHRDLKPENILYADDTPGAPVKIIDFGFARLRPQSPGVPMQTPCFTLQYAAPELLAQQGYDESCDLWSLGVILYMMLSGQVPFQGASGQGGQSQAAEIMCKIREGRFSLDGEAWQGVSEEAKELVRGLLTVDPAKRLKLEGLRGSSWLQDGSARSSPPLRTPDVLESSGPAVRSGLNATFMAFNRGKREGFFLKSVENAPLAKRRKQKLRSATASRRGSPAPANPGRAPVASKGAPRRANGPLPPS

Sequence of Vascular endothelial growth factor receptor 2 (P35968 whole entry): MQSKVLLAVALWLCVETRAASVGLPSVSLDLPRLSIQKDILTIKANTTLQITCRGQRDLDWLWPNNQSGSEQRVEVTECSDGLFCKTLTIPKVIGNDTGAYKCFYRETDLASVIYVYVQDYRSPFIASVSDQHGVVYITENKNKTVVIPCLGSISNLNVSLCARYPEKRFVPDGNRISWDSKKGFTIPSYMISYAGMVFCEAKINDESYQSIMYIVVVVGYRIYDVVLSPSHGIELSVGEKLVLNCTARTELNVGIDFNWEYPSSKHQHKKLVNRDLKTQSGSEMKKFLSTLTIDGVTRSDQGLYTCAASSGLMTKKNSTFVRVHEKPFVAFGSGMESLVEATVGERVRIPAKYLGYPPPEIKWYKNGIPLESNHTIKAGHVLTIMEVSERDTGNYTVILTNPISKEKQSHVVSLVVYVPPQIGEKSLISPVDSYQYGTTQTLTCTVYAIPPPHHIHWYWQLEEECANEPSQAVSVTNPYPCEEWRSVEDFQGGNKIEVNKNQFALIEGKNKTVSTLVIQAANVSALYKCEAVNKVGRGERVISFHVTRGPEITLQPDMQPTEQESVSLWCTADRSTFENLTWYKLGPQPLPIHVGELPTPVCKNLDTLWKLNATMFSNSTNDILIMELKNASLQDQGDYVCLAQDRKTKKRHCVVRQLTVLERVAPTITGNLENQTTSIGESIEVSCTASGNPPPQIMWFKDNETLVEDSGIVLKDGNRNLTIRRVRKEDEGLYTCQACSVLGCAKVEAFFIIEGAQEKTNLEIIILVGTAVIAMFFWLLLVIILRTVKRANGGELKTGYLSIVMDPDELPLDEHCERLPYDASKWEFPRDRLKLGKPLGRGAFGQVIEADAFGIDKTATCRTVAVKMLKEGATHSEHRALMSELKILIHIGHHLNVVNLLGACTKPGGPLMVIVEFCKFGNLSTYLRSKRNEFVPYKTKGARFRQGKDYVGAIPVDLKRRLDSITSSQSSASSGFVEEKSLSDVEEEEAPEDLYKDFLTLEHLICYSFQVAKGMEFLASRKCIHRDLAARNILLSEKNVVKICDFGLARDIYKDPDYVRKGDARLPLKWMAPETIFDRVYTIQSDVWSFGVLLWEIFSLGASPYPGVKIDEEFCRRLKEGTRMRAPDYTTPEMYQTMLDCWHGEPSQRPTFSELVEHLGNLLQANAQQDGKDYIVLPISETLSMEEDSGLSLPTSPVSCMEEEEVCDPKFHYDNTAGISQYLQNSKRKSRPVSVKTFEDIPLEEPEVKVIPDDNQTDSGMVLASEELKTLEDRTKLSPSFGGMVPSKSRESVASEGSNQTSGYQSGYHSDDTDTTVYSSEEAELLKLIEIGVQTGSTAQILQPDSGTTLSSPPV

`COc1cc(Nc2nc(C)cc(-c3cnn4nc(OC)ccc34)n2)cc(C(F)(F)F)c1` was tested, and the % of control [1] was 95%.

For `CC[C@@H]1[C@H](F)C(=O)N[C@@H]1COc1nccc2cc(C(N)=O)c(OC)cc12` [ZIMLOVISERTIB], the % of inhibition [2] was -3% and the % of inhibition [3] was 6.43%.

`CN(C)C/C=C/C(=O)Nc1ccc(C(=O)N2CCCC(Nc3ncc(Cl)c(-c4c[nH]c5ccccc45)n3)C2)cc1` (stereo unspecified) was tested, and the % of control [4] was 85%.

In the case of `COc1cc(C(=O)N2CC[C@@H](O)[C@@H](N)C2)cc2nc(-c3cc4ccccc4n3CC3CC3)n(C)c12`, the pXC50 [5] is reported as under 4.5 M.

Compound `Cn1cc(-n2cnc3c(NCc4nc5cc(Cl)c(Cl)cc5[nH]4)nc(N4CCOCC4)nc32)cn1` has a % of control [6] of 0.55%.
